Laboratory results published in patent EP1214940B1, “Methods of enhancing the therapeutic activity of NSAIDs and compositions of zwitterionic phospholipids useful therein” (Board of Regents, The University of Texas System, priority 1995, dated 1996).
Where two headings read alike, the source gives them in different places. Marks after values point to notes of the source that are not given here.

Assays:
[1] = tested on: rats; format: in vivo; conditions: aspirin 90mg/kg daily intragastric over 2 weeks, (n) rats/group
Procedure: Rats were treated with ASA over a two week period to investigate the chronic effects of NSAID exposure (in the presence and absence of phospholipids) on hematocrit, gastric mucosal hydrophobicity, and granuloma formation. […] The test solutions (saline, ASA and ASA/Phospholipon 90G complex) were intragastrically administered between 8AM - 9AM daily during the two week study period. In these chronic exposure experiments, ASA was complexed with an equimolar concentration of Phospholipon 90G (purified soya lecithin, prepared and obtained from Nattermann GmbH of Cologne, Germany) instead of DPPC. At the completion of the study period, blood was collected into a capillary tube for the determination of hematocrit and the stomach was excised for contact angle analysis.
Contact angle analysis was performed with the use of a goniometer on excised gastric mucosal tissue, that was lightly blotted and dried, as previously outlined (Hills et al., 1983; Goddard et al., 1987; Goddard et al., 1990). Briefly, this was accomplished by applying a droplet of water (~ 5µl) to the tissue surface, and employing the telescopic eyepiece of the goniometer to measure the maximal angle that is dissected at the triple point, where the solid/liquid/ and air interface meet.

[2] = tested on: Foreign-Body Granuloma Formation; assay: Rat foreign-body granuloma formation (implanted cotton string), two-week daily treatment; format: in vivo, rats; conditions: two weeks, (dry weight of string with adherent granuloma tissue - dry weight of string)/dry weight of string
Excerpt: Sterile tared cotton string was surgically implanted (bilaterally) under the abdominal skin of ether anesthetized rats on day 1 of the study period, and then randomly placing rats in a group to be daily treated with saline, aspirin or the NSAID complexed with Phospholipon 90G over a two-week period.
At the completion of the study period the string with the adherent granuloma tissue was surgically dissected from the euthanized rats and dried in a vacuum for several days at room temperature, until a baseline dry weight was obtained. The difference between this value and the initial dry weight of the string prior to implantation divided by the latter value provided an estimate of the weight of granuloma tissue.

[3] = tested on: Foreign-Body Granuloma Formation in Rats; assay: Foreign-body granuloma formation in rats, low dose aspirin (9 mg/kg) alone or with phospholipid/neutral lipids; format: in vivo; conditions: aspirin 9 mg/kg intragastric twice a day, 5 doses, starting five days after implantation; (n); spread in next table row
Excerpt: Sterile tared string was surgically implanted. Five days later rats were intragastrically administered twice a day with either saline, ASA alone, or ASA lipid mixtures.

[4] = tested on: Platelet Aggregation; assay: Ristocetin platelet aggregation test; format: cell-based
[5] = tested on: rats; assay: Acute gastric lesions in rats after salicylate-based NSAID and 0.6 N HCl challenge; format: in vivo, male Sprague Dawley rats; conditions: intragastrically administered in association with DPPC versus without; rats challenged with 0.6N HCl; FIG. 4A
Procedure: Ten minutes later, the rats were intragastrically challenged with 1 ml of 0.6 N HCI.
One of a number of NSAIDs was intragastrically administered to rats alone or preassociated with an equimolar concentration of DPPC or Phospholipon 90 G (purified soya lecithin, prepared by Nattermann GmbH of Cologne Germany) in several models of acute and chronic injury of the upper GI tract. Two contrasting animal models were employed to determine the ability of DPPC to protect against acute NSAID injury to the GI tract. For salicylate-based NSAIDs, which primarily induce stomach injury, gastric lesions were scored in fasted rats who were initially treated with aspirin or salicylate alone or complexed with DPPC and challenged 10 minutes later with a supra-physiological dose of HCl. For non-salicylate NSAIDs (indomethacin, diclofenac and naproxen) which predominantly induce injury to the mid-distal regions of the small intestine, the quantity of intraluminal blood was assessed in the distal half of the small intestine of rats who were pre- and post-treated with the Nitric Oxide synthetase inhibitor, L-NAME (N-nitro-L-arginine methyl ester).

[6] = tested on: rats; assay: Rat fever model (Brewer's yeast), antipyretic activity by rectal temperature; format: in vivo; conditions: for enhancement in anti-pyretic activity of the NSAID/DPPC complex compared to the NSAID alone: sodium salts complexed with equimolar DPPC, first three hours after intragastric administration
Procedure: Similar antipyretic analyses were performed with the sodium salts of the following NSAIDs: diclofenac (10 mg/kg), indomethacin (10 mg/kg) and naproxen (30 mg/kg), alone and complexed with an equimolar concentration of DPPC. All test solutions were titrated to a pH of 4.5 prior to intragastric administration. Rectal temperatures were monitored in conscious, restrained rats at all indicated times.
The ability of NSAIDs (administered alone and complexed with DPPC) to reduce fever in rats was determined.

[7] = format: physicochemical; conditions: NSAID sodium salt 100mM, 25°C, neutral conditions, alone or sonicated with 0.5 mM DPPC or DPPG; the sodium-salicylate line is with DPPC; FIG. 3
Procedure: The diffusion of aspirin (alone and complexed with phospholipid) from water into cyclohexane was used as a model to estimate the membrane permeability of the drug.
The sodium salt of ASA (also salicylate) was dissolved in 5 ml of water at a final concentration of 100mM (pH adjusted to 6.0) and gently stirred at 25°C. An equal volume of cyclohexane was layered over the aqueous solution and the entry of the NSAID into the organic phase was monitored fluorometrically over time. In order to determine the effect of phospholipid association on the lipid permeability of the NSAID, ASA (or salicylate) at the above concentration was sonicated in the presence of 0.5 mM phospholipid (DPPC or DPPG) in water (adjusted to a pH of 7), and its rate of diffusion into the cyclohexane phase was measured fluorometrically. […] This entire process could be completed in < 30 seconds.

CC(=O)Oc1ccccc1C(=O)O [ASA, acetyl-salicylic acid]
Gastric Mucosal Hydrophobicity (degrees, Contact Angle) [1]: 15.8 ± 6.6^c(6) degrees | Hematocrit [1]: 47.8 ± 0.2^c(10) | Granuloma Formation ([2]; ASA 90 mg/kg): 1.90 ± 0.10^b | Granuloma Formation ([2]; ASA 140 mg/kg): 1.07 ± 0.09^b | Foreign-Body Granuloma Formation [3]: 3.89(8) | activity at 10 µM ([4]; read-out: % Platelet Aggregation, High Ristocetin (1.5 mg/ml) Test, ASA 0.01mM, DPPC equimolar where added): 100% | activity at 100 µM ([4]; read-out: % Platelet Aggregation, High Ristocetin (1.5 mg/ml) Test, ASA 0.1 mM, DPPC equimolar where added): 83% | activity at 1000 µM ([4]; read-out: % Platelet Aggregation, High Ristocetin (1.5 mg/ml) Test, ASA 1.0 mM, DPPC equimolar where added): 95% | activity at 1000 µM ([4]; read-out: % Platelet Aggregation, High Ristocetin (1.5 mg/ml) Test, ASA 1.0 mM, second study, DPPC equimolar where added): 100% | activity at 10 µM ([4]; read-out: % Platelet Aggregation, Low Ristocetin (0.75) mg/ml Test, ASA 0.01mM, DPPC equimolar where added): 65% | activity at 100 µM ([4]; read-out: % Platelet Aggregation, Low Ristocetin (0.75) mg/ml Test, ASA 0.1mM, DPPC equimolar where added): 26% | activity at 1000 µM ([4]; read-out: % Platelet Aggregation, Low Ristocetin (0.75) mg/ml Test, ASA 1.0mM, second study, DPPC equimolar where added): 39% | activity at 1000 µM ([4]; read-out: % Platelet Aggregation, Low Ristocetin (0.75) mg/ml Test, ASA 1.0mm, DPPC equimolar where added): 80% | injurious potential to induce gastric lesions [5]: remarkably decreased | antipyretic activity ([6]; ASA 4.5 mg/kg (subthreshold), alone or complexed with equimolar DPPC, FIG. 9): no antipyretic activity alone | antipyretic activity ([6]; ASA 9.0 mg/kg (subthreshold), intragastric, alone or with equimolar phospholipid, FIG. 6 (five hour period) and FIG. 8): does not have significant antipyretic activity | antipyretic activity after antisecretory pre-treatment ([6]; aspirin 20 mg/kg (FIG. 22: 18 mg/kg) in conjunction with proton pump inhibitor omeprazole (Prilosec), IP 150 mg/kg two hours before): failed to reduce fever | antipyretic activity after antisecretory pre-treatment ([6]; aspirin 20 mg/kg (FIG. 23: 18 mg/kg) in conjunction with Ranitidine (Zantac), IP 2 mg/kg 1 hour before): failed to reduce fever | antipyretic activity ([6]; aspirin alone at doses of < 10 mg/kg, 4 hour study period, FIG. 7): failed to reduce the fever | passive diffusion (flux) from water into cyclohexane [7]: negligible

O=C(O)c1ccccc1O [salicylate, salicylic acid]
injurious potential to induce gastric lesions [5]: remarkably decreased | anti-pyretic activity with DPPC versus NSAID alone ([6]; salicylic acid 70 mg/kg dose with DPPC, FIG. 21): ability of DPPC to enhance the anti-pyretic activity

O=C(O)Cc1ccccc1Nc1c(Cl)cccc1Cl [diclofenac, 2-(2,6-dichlorophenylamino)-phenylacetic acid]
anti-pyretic activity with DPPC versus NSAID alone ([6]; diclofenac 10 mg/kg with DPPC, FIG. 20): ability of DPPC to enhance the anti-pyretic activity | enhancement in anti-pyretic activity of the NSAID/DPPC complex compared to the NSAID alone [6]: -0.29 °C

COc1ccc2cc([C@H](C)C(=O)O)ccc2c1 [naproxen, 2-(6-methoxy-2-naphthyl)-propinic acid]
anti-pyretic activity with DPPC versus NSAID alone ([6]; naproxen 25 mg/kg dose with DPPC, FIG. 19): ability of DPPC to enhance the anti-pyretic activity | enhancement in anti-pyretic activity of the NSAID/DPPC complex compared to the NSAID alone [6]: -0.30 °C

CCCCCCCCCCCCCCCC(=O)OCC(COP(=O)([O-])OCC[N+](C)(C)C)OC(=O)CCCCCCCCCCCCCCC (stereo not drawn) [DPPC, dipalmitoyl phosphatidylcholine]
activity at 1000 µM ([4]; High Ristocetin (1.5 mg/ml) Test, ASA 0.00, DPPC alone at 1 mM, read-out: % Platelet Aggregation): 100% | activity at 1000 µM ([4]; Low Ristocetin (0.75) mg/ml Test, ASA 0.00, DPPC alone at 1 mM, read-out: % Platelet Aggregation): 94%

COc1ccc2c(c1)c(CC(=O)O)c(C)n2C(=O)c1ccc(Cl)cc1 [indomethacin, acetic acid]
anti-pyretic activity with DPPC versus NSAID alone ([6]; indomethacin 10 mg/kg with DPPC, FIG. 18): ability of DPPC to enhance the anti-pyretic activity of ASA was seen | enhancement in anti-pyretic activity of the NSAID/DPPC complex compared to the NSAID alone [6]: -0.28 °C
